Data taken from patent US11311570B2, “Method of inducing satiety” (PERORA GMBH, priority 2014, dated 2022).

Experiments:
[1] = published rat feeding study, independent from intake; cited from earlier work
[2] = Tryptophan release / dissolution in simulated gastric and intestinal fluid; type: physicochemical; details: 30 mg powder in 22 mL FaSSGF, 37° C.
Procedure: A sample of 200 mg of tryptophan-containing granules was suspended in 22 mL fasted-state simulated gastric fluid (FaSSGF) at 37° C. and agitated (shaker ST5 from CAT, Germany). FaSSGF was prepared by dissolving 1 g of NaCl (Sigma-Aldrich) in 450 mL of water, adding 30 mg of SIF powder (biorelvant.com), adjusting the pH to 2.0 with 0.1 N HCl (Sigma-Aldrich) and adding water to a final volume of 500 mL.
A sample of 200 mg of tryptophan-containing granules was suspended in 22 mL fasted-state simulated intestinal fluid (FaSSIF) at 37° C. and agitated (shaker ST5 from CAT, Germany).
30 mg of tryptophan powder were suspended in 22 mL FaSSGF at 37° C. and agitated (shaker ST5 from CAT, Germany). Aliquots were removed at time intervals of 5 min, and tryptophan concentration was quantified using absorption measurement at a wavelength of 280 nm in a NanoDrop® 2000 device (Thermo Scientific, USA).

| SMILES | true digestibility of stearic acid from tristearin [1] [g/g] | time after which quantitatively dissolved [2] [min] |
| --- | --- | --- |
| CCCCCCCCCCCCCCCCCC(=O)OCC(COC(=O)CCCCCCCCCCCCCCCCC)OC(=O)CCCCCCCCCCCCCCCCC [tristearin] | 0.15 | – |
| N[C@@H](Cc1c[nH]c2ccccc12)C(=O)O [tryptophan powder, L-Tryptophan] | – | 10 |
